Laboratory results: patent publication US20200031778A1, “NOVEL 5-SUBSTITUTED IMIDAZOLYLMETHYL DERIVATIVES” (Bayer CropScience Aktiengesellschaft, priority 2016, published 2020)

Legend:
[1] = Log P by HPLC on reversed phase columns (EEC directive 79/831 Annex V.A8; methods [a], [b], [c]); assay type: physicochemical; settings: for chromatographic logP: reversed phase HPLC column, method [a]: LC-UV, acidic range, 0.1% formic acid in water and acetonitrile as eluent (linear gradient from 10% to 95% acetonitrile)
In short: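 Reversed-phase HPLC with LC-UV detection, 10→95% acetonitrile linear gradient; aqueous eluent 0.1% formic acid [a], 0.001 M ammonium acetate, neutral [b], or 0.1% phosphoric acid [c]. Calibrated against C3–C16 alkan-2-ones of known Log P by retention-time linear interpolation; multiple values within a method separated by "+".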

[2] = tested on: Septoria tritici; experiment: Example IX-B: in vivo preventive test on Septoria tritici (leaf spot on wheat); settings: Zymoseptoria tritici, 576 h; compounds of formula IX; 500 ppm of active ingredient; wheat plants, preventive spray; evaluated 24 days after inoculation; read-out: efficacy
Experimental: Example IX-B: In Vivo Preventive Test on Septoria Tritici (Leaf Spot on Wheat)
(§1) The active ingredients are made soluble and homogenized in a mixture of Dimethyl sulfoxide/Acetone/Tween® 80 and then diluted in water to the desired concentration.
The young plants of wheat are treated by spraying the active ingredient prepared as described above. Control plants are treated only with an aqueous solution of Acetone/Dimethyl sulfoxide/Tween® 80.
After 24 hours, the plants are contaminated by spraying the leaves with an aqueous suspension of Septoria tritici spores. The contaminated wheat plants are incubated for 72 hours at 18° C. and at 100% relative humidity and then for 21 days at 20° C. and at 90% relative humidity.
The test is evaluated 24 days after the inoculation. 0% means an efficacy which corresponds to that of the control plants while an efficacy of 100% means that no disease is observed.

[3] = tested on: Sphaerotheca fuliginea; experiment: Example IX-C: in vivo preventive test on Sphaerotheca fuliginea (powdery mildew on cucurbits); settings: Podosphaera fuliginea, 360 h; compounds of formula IX; 500 ppm of active ingredient; gherkin plants, preventive spray; evaluated 15 days after inoculation; read-out: efficacy
Experimental: Example IX-C: In Vivo Preventive Test on Sphaerotheca Fuliginea (Powdery Mildew on Cucurbits)
as §1
The young plants of gherkin are treated by spraying the active ingredient prepared as described above. Control plants are treated only with an aqueous solution of Acetone/Dimethyl sulfoxide/Tween® 80.
After 24 hours, the plants are contaminated by spraying the leaves with an aqueous suspension of Sphaerotheca fuliginea spores. The contaminated gherkin plants are incubated for 72 hours at 18° C. and at 100% relative humidity and then for 12 days at 20° C. and at 70-80% relative humidity.
The test is evaluated 15 days after the inoculation. 0% means an efficacy which corresponds to that of the control plants while an efficacy of 100% means that no disease is observed.

Row | Compound | LogP [1] | further results
1 | COc1cc(F)ccc1C(=O)Cn1cncc1Cl [IX-11] |  | chromatographic logP [1]: 1.34; pest or weed control at 500 ppm [2]: 90 to 100%
2 | COc1ccc(Oc2ccc(C(=O)Cn3cncc3Cl)c(C)n2)c(Cl)c1 [IX-25] |  | chromatographic logP [1]: 2.33; pest or weed control at 500 ppm [2]: 90 to 100%
3 | O=C(Cn1cncc1Cl)c1ncc(Oc2ccccc2)cc1Cl [IX-01] |  | chromatographic logP [1]: 2.44; pest or weed control at 500 ppm [2]: 80 to 89%
4 | N#Cc1cncn1CC(=O)c1ccc(Oc2c(F)cc(Cl)cc2F)nc1C(F)(F)F [IX-124] |  | chromatographic logP [1]: 3.28; pest or weed control at 500 ppm [2]: 90 to 100%
5 | N#Cc1cncn1CC(=O)c1ccc(C(F)(F)F)cc1 [IX-117] |  | chromatographic logP [1]: 1.99; pest or weed control at 500 ppm [2]: 90 to 100%
6 | N#Cc1cncn1CC(=O)c1ccc(Oc2ccc(Br)nc2)cc1Cl [IX-76] |  | chromatographic logP [1]: 2.7; pest or weed control at 500 ppm [2]: 90 to 100%
7 | N#Cc1cncn1CC(=O)c1ccccc1C(F)(F)F [IX-138] |  | chromatographic logP [1]: 2.07; pest or weed control at 500 ppm [3]: 90 to 100%
8 | O=C(Cn1cncc1Br)c1ccc(Oc2ccc(C(F)(F)F)cc2)c(Cl)c1 [IX-03] |  | chromatographic logP [1]: 3.23; pest or weed control at 500 ppm [2]: 90 to 100%
9 | O=C(Cn1cncc1Cl)c1ccc(Oc2ccc(C(F)(F)F)cc2)c(Br)c1 [IX-16] |  | chromatographic logP [1]: 3.29; pest or weed control at 500 ppm [2]: 90 to 100%
10 | N#Cc1cncn1CC(=O)c1ccccc1F [IX-113] |  | chromatographic logP [1]: 1.65; pest or weed control at 500 ppm [2]: 70 to 79%
11 | CC(=O)c1cncn1CC(=O)c1ccc(Oc2ccc(C(F)(F)F)nc2)nc1C(F)(F)F [IX-133] |  | chromatographic logP [1]: 2.6; pest or weed control at 500 ppm [2]: 90 to 100%
12 | O=C(Cn1cncc1Cl)c1ccc(F)cc1Br [IX-35] |  | chromatographic logP [1]: 1.57; pest or weed control at 500 ppm [3]: 90 to 100%
13 | N#Cc1cncn1CC(=O)c1ccccc1Br [IX-127] |  | chromatographic logP [1]: 1.79; pest or weed control at 500 ppm [2]: 90 to 100%
14 | CC(C)(C)C(O)(Cn1cncc1C#N)c1cc(Br)cc(Br)c1 (stereo not drawn) [I-490] | 3.39^[a] | 
15 | OC(Cn1cncc1Cl)c1ccc(Oc2ccc(C(F)(F)F)cc2)cc1C(F)(F)F (stereo not drawn) [I-35] | 3.00^[a] | 
16 | OC(Cn1cncc1F)c1cnc(Oc2ccc(Cl)cc2)cc1C(F)(F)F (stereo not drawn) [I-119] | 2.23^[a] | 
17 | N#Cc1cncn1CC(O)(c1ccc(F)c(Cl)c1F)C1(Cl)CC1 (stereo not drawn) [I-627] | 2.52^[a] | 
18 | OC(Cn1cncc1Br)c1ccc(Oc2ccc(Cl)cc2)cc1Br (stereo not drawn) [I-24] | 2.68^[a] | 
19 | COc1cc(C(O)(Cn2cncc2C#N)C2(F)CC2)c(F)cc1Cl (stereo not drawn) [I-508] | 2.34^[a] | 
20 | N#Cc1cncn1CC(O)(c1cc(F)cc(F)c1F)C1(Cl)CC1 (stereo not drawn) [I-620] | 2.29^[a] | 
21 | OC(Cn1cncc1F)c1ccc(Oc2ccc(Br)nc2)nc1C(F)(F)F (stereo not drawn) [I-155] | 1.75^[a] | 
22 | N#Cc1cncn1CC(O)(c1cc(Cl)c(F)cc1Br)C1(F)CC1 (stereo not drawn) [I-687] | 2.61^[a] | 
23 | COc1ccc(Oc2ccc(C(C)(O)Cn3cncc3Cl)c(Cl)n2)c(Cl)c1 (stereo not drawn) [I-163] | 2.30^[a] | 

Row | Compound | LogP [1] | further results
24 | N#Cc1cncn1CC(O)c1ccc(Oc2ccc(Cl)cc2F)nc1C(F)(F)F (stereo not drawn) [I-136] | 2.94^[a] | 
25 | N#Cc1cncn1CC(O)(c1ccc(Cl)cc1Cl)C1CC1 (stereo not drawn) [I-304] | 2.77^[a] | 
26 | N#Cc1cncn1CC(O)(c1cc(Cl)ccc1F)C1(F)CC1 (stereo not drawn) [I-522] | 2.25^[a] | 
27 | CC(=O)c1cncn1CC(C)(O)c1cnc(Oc2ccc(Cl)cc2)cc1C(F)(F)F (stereo not drawn) [I-250] | 2.78^[a] | 
28 | OC(Cn1cncc1Cl)c1ccc(Oc2ccccn2)cc1Cl (stereo not drawn) [I-80] | 1.53^[a] | 
29 | N#Cc1cncn1CC(O)(c1cc(F)cc(Cl)c1)C1(F)CC1 (stereo not drawn) [I-474] | 2.38^[a] | 
30 | OC(Cn1cncc1Cl)c1ccc(Oc2ccc(Cl)cc2)cc1C(F)(F)F (stereo not drawn) [I-21] | 2.86^[a] | 
31 | N#Cc1cncn1CC(O)(c1cc(Br)cc(Br)c1)C1(F)CC1 (stereo not drawn) [I-469] | 2.82^[a] | 
32 | CCCC(O)(Cn1cncc1C#N)c1ccc(C(F)(F)F)cc1Cl (stereo not drawn) [I-421] | 3.23^[a] | 
33 | C#CC(O)(Cn1cncc1C#N)C1(F)CC1 (stereo not drawn) [I-654] | 1.11^[a] | 
34 | CCCC(O)(Cn1cncc1C#N)c1ccc(C2CC2)cc1Cl (stereo not drawn) [I-407] | 3.19^[a] | 
35 | CC(C)C(O)(Cn1cncc1C#N)c1ccc(C(F)(F)F)cc1Cl (stereo not drawn) [I-426] | 3.11^[a] | 
36 | N#Cc1cncn1CC(O)(C#Cc1ccccc1Cl)C1(Cl)CC1 (stereo not drawn) [I-324] | 2.73^[a] | 
37 | N#Cc1cncn1CC(O)(c1c(Cl)ccc(Cl)c1F)C1(F)CC1 (stereo not drawn) [I-564] | 2.39^[a] | 
38 | CC(O)(Cn1cncc1Cl)c1ccc(Oc2ccc(Cl)cc2)nc1C(F)(F)F (stereo not drawn) [I-180] | 2.63^[a] | 
39 | N#Cc1cncn1CC(O)(c1cccc(F)c1Cl)C1(F)CC1 (stereo not drawn) [I-555] | 2.12^[a] | 
40 | N#Cc1cncn1CC(O)(c1ccc(Cl)cc1Cl)C1(F)CC1 (stereo not drawn) [I-237] | 2.51^[a] | 
41 | N#Cc1cncn1CC(O)(c1cc(Cl)cc(Cl)c1Cl)C1(Cl)CC1 (stereo not drawn) [I-614] | 2.80^[a] | 
42 | CCOC(Cn1cncc1Cl)c1ccc(Oc2ccc(Br)cc2)cc1Br (stereo not drawn) [I-58] | 4.21^[a] | 
43 | N#Cc1cncn1CC(O)(c1ccc(Cl)cc1F)C1CCC1 (stereo not drawn) [I-448] | 2.86^[a] | 
44 | CC(O)(Cn1cncc1Cl)c1ccc(Oc2ccc(Br)nc2)cc1Cl (stereo not drawn) [I-203] | 2.11^[a] | 
45 | N#Cc1cncn1CC(O)c1ccc(Oc2ccc(Cl)cc2)cc1F (stereo not drawn) [I-54] | 2.94^[a] | 
46 | C[Si](C)(C)C#CC(O)(Cn1cncc1C#N)C1(Cl)CC1 (stereo not drawn) [I-318] | 2.76^[a] | 

Row | Compound | LogP [1] | further results
47 | CC(O)(Cn1cncc1Br)c1ccc(Oc2ccc(I)cc2)cc1Br (stereo not drawn) [I-186] | 3.23^[a] | 
48 | CC(C)(C)c1ccc(C(O)(Cn2cncc2C#N)C2(Cl)CC2)c(Cl)c1 (stereo not drawn) [I-354] | 3.39^[a] | 
49 | C#Cc1ccc(C(O)(Cn2cncc2C#N)C2(Cl)CC2)c(Cl)c1 (stereo not drawn) [I-370] | 2.52^[a] | 
50 | N#Cc1cncn1CC(O)(c1ccccc1C(F)(F)F)C1(Cl)CC1 (stereo not drawn) [I-344] | 2.35^[a] | 
51 | OC(CCCC1CCCCC1)(Cn1cncc1C(F)(F)F)C1(Cl)CC1 (stereo not drawn) [I-676] | 5.19^[a] | 
52 | N#Cc1cncn1CC(O)(c1cc(F)c(F)cc1Cl)C1(F)CC1 (stereo not drawn) [I-579] | 2.32^[a] | 
53 | N#Cc1cncn1CC(O)(c1ccc(F)cc1Br)C1CCC1 (stereo not drawn) [I-449] | 2.86^[a] | 
54 | OC(Cn1cncc1Br)c1ccc(Oc2ccc(Cl)cc2)cc1Cl (stereo not drawn) [I-14] | 2.60^[a] | 
55 | COC(Cn1cncc1F)c1ccc(Oc2ccc(Cl)cc2)cc1C(F)(F)F (stereo not drawn) [I-108] | 3.16^[a] | 
56 | N#Cc1cncn1CC(O)(c1cc(F)cc(F)c1Cl)C1(Cl)CC1 (stereo not drawn) [I-619] | 2.33^[a] | 
57 | N#Cc1cncn1CC(=O)c1ccccc1 [IX-101] |  | chromatographic logP [1]: 1.55
58 | CC(O)(Cn1cncc1Br)c1ccc(Oc2ccc(I)cc2)cc1Cl (stereo not drawn) [I-172] | 3.17^[a] | 
59 | CC(C)(C)C(O)(Cn1cncc1C#N)c1ccc(F)c(F)c1 (stereo not drawn) [I-483] | 2.66^[a] | 
60 | C[Si](C)(C)CC(O)(Cn1cncc1C#N)c1ccccc1Cl (stereo not drawn) [I-306] | 3.39^[a] | 
61 | OC(Cn1cncc1Cl)c1ccc(Oc2ccc(C(F)(F)F)cc2)cc1 (stereo not drawn) [I-13] | 2.37^[a] | 
62 | N#Cc1cncn1CC(O)(c1cc(F)c(F)cc1Cl)C1(Cl)CC1 (stereo not drawn) [I-584] | 2.49^[a] | 
63 | OC(Cn1cncc1F)c1ccc(Oc2ccc(C(F)(F)F)nc2)nc1C(F)(F)F (stereo not drawn) [I-142] | 1.98^[a] | 
64 | CC(C)(C)C#Cc1ccc(C(O)(Cn2cncc2C#N)C2(F)CC2)c(Cl)c1 (stereo not drawn) [I-642] | 3.83^[a] | 
65 | CC(C)(C)C#Cc1ccc(C(O)(Cn2cncc2C#N)C2(Cl)CC2)c(Cl)c1 (stereo not drawn) [I-657] | 3.99^[a] | 
66 | N#Cc1cncn1CC(O)(c1c(F)cc(F)cc1Br)C1(Cl)CC1 (stereo not drawn) [I-566] | 2.49^[a] | 
67 | N#Cc1cncn1CC(O)c1ccc(Cl)cc1Cl (stereo not drawn) [I-144] | 2.12^[a] | 
68 | N#Cc1cncn1CC(O)(c1ccc(F)cc1)C1(Cl)CC1 (stereo not drawn) [I-248] | 2.21^[a] | 
